Assay [1] addresses CDK7/Cyclin H/MAT1 complex (Homo sapiens, UniProt P50613). Description: CDK7 inhibition assay (Caliper/LabChip EZ Reader kinase assay). The format is biochemical. Particulars: Table 1, CDK7/Cyclin H/MAT1 6 nM, ATP 2 mM, 35 min at 27° C. A digest of the protocol:
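A Perkin Elmer Caliper/LabChip EZ Reader (Waltham, MA) platform served as the basis for this CDK7 kinase inhibition assay. The work was carried out by Biortus Biosciences, located in Jiangyin, Jiangsu Province, P.R. of China. Each CDK studied had its own kinase assay, and compounds were evaluated for their ability to block CDK7 activity.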

Assay [2] deals with T1, CDK12 (aa686-1082)/Cyclin K complex (Homo sapiens, UniProt Q9NYV4).
T1 construct: CDK12 (aa686-1082)/Cyclin K complex
T1 sequence (Q9NYV4 686-1082, species assumed): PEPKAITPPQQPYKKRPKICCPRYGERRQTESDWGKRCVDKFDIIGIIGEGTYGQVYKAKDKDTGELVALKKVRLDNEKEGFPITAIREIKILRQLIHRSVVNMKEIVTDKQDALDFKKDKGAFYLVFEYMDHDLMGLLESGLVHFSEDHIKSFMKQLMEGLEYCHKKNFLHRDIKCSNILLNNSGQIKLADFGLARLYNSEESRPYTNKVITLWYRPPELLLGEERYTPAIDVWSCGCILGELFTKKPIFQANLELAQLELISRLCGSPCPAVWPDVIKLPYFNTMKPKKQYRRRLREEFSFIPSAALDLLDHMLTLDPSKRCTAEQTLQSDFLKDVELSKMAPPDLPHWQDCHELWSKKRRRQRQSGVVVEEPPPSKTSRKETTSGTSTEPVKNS
T1 sequence (O75909 whole entry partner, species assumed, the tested form may be a part): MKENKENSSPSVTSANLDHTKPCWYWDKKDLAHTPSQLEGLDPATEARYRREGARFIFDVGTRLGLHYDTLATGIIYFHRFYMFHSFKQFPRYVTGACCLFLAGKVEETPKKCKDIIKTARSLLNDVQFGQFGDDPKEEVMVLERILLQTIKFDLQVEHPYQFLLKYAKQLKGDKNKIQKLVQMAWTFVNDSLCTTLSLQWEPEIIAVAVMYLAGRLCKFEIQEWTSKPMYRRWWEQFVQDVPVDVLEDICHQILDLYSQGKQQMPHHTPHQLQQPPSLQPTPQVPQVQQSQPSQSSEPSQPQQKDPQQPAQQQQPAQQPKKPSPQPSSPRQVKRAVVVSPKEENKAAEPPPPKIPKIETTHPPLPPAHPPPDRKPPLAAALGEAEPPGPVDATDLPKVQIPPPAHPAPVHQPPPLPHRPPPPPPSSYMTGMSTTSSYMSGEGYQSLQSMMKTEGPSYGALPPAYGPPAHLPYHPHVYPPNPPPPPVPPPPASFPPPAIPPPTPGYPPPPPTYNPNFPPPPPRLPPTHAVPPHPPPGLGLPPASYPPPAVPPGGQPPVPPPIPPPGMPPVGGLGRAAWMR
Description: CDK12 inhibition assay (Caliper/LabChip EZ Reader kinase assay). The format is biochemical. Particulars: Table 1, CDK12 (aa686-1082)/Cyclin K 50 nM, ATP 2 mM, 3 hr at 27° C.

The subject of the next assay is HCC70 cells. Description: Inhibition of proliferation of HCC70 cells (CyQUANT Direct Cell Proliferation Assay, 72 hour). The assay is classed as cell-based, human. Particulars: Homo sapiens, HCC70, 72 h, read-out: Inhibition of Proliferation of HCC70 Cells (calculated IC50). A digest of the protocol: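 Human triple-negative breast cancer HCC70 cells cultured at 37° C, 5% CO2, with compound for 72 hour. Anti-proliferative effect read by CyQUANT Direct Cell Proliferation Assay. Dinaciclib, a CDK inhibitor analog and triptolide served as positive controls.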

Another assay addresses CDK9/Cyclin T1 complex (Homo sapiens, UniProt P50750). In words: CDK9 inhibition assay (Caliper/LabChip EZ Reader kinase assay). The format is biochemical. Particulars: Table 1, CDK9/Cyclin T1 8 nM, ATP 2 mM, 15 min at 27° C. An outline of the steps:
(§1)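 Activity read as fluorescent peptide conversion on a LabChip EZ Reader. For CDK2/Cyclin E1 (0.5 nM), substrate was 5-FAM-CDK7tide (2 μM) with 2 mM MgCl2; for CDK9/Cyclin T1 (8 nM), 5-FAM-CDK9tide (2 μM) with 10 mM MgCl2.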

For the next assay, the target named is CDK2/Cyclin E1 complex (Homo sapiens, UniProt P24941). Description: CDK2 inhibition assay (Caliper/LabChip EZ Reader kinase assay). The assay is classed as biochemical. Particulars: Table 1, CDK2/Cyclin E1 0.5 nM, ATP 2 mM, 35 min at 27° C. A digest of the protocol: as §1

Molecules are shown by their SMILES. A value given as a limit tells only on which side of the number the result lay.

Sequence of CDK9/Cyclin T1 complex (P50750 whole entry, species assumed): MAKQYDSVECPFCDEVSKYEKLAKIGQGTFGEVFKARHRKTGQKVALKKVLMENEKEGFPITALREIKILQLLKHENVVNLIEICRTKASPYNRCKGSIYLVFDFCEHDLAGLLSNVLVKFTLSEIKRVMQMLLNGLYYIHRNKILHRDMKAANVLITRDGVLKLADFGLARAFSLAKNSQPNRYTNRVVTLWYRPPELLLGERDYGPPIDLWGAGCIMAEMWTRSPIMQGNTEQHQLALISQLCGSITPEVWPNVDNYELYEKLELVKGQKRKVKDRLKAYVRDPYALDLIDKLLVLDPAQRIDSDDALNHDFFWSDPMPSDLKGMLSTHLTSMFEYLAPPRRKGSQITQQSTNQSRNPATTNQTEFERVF
Sequence of CDK9/Cyclin T1 complex (O60563 whole entry partner, species assumed): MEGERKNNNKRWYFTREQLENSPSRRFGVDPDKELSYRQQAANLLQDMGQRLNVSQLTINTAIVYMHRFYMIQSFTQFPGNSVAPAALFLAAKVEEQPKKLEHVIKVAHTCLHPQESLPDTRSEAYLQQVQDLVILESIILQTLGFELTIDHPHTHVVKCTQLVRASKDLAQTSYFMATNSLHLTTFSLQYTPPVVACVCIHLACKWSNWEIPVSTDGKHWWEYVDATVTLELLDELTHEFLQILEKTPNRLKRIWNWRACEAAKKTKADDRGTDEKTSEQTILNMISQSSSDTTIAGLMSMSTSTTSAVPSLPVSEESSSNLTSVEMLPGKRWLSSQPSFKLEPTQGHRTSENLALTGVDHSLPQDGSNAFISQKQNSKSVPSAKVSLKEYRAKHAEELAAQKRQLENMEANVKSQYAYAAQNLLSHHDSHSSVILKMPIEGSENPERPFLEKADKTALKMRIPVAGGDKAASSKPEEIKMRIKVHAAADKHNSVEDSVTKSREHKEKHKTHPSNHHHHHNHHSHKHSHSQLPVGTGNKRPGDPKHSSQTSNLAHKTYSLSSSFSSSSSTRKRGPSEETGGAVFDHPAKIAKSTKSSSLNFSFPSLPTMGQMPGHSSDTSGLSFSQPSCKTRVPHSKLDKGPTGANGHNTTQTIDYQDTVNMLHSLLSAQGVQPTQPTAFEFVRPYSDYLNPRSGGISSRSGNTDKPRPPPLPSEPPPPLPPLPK
Sequence of CDK7/Cyclin H/MAT1 complex (P50613 whole entry, species assumed): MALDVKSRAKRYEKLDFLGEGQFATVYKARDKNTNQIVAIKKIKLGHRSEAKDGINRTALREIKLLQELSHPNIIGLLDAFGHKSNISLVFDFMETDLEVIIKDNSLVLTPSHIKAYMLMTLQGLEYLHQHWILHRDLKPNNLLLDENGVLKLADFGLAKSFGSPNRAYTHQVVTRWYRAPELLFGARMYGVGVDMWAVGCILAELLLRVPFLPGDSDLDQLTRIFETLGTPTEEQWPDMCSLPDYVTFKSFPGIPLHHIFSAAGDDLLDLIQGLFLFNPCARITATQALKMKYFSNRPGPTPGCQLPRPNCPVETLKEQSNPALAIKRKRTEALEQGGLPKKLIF
Sequence of CDK7/Cyclin H/MAT1 complex (P51946 whole entry partner, species assumed): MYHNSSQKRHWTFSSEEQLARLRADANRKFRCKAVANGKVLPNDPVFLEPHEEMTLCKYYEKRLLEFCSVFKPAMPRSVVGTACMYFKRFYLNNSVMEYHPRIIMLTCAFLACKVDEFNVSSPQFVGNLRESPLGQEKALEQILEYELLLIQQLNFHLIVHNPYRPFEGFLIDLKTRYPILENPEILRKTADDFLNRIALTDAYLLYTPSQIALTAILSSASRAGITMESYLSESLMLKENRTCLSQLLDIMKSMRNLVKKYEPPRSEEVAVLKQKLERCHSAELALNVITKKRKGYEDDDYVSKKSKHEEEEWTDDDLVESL
Sequence of CDK7/Cyclin H/MAT1 complex (P51948 whole entry partner, species assumed): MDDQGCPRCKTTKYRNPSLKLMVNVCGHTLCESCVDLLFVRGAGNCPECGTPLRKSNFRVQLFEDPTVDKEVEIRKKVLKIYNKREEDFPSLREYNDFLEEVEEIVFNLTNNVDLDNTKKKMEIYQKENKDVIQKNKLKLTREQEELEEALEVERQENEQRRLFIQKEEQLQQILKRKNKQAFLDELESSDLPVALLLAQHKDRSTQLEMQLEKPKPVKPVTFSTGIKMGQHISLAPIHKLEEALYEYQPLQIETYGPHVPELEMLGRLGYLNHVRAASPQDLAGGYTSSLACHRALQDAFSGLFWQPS

In the case of `CN(C)S(=O)(=O)c1ccc2c(-c3nc(N[C@H]4CCCNC4)ncc3C(F)(F)F)c[nH]c2c1` [Compound 357, N,N-dimethyl-3-[2-[[(3S)-3-piperidyl]amino]-5-(trifluoromethyl)pyrimidin-4-yl]-1H-indole-6-sulfonamide], the IC50 in assay [1] is less than 20 nM; in assay [2], 200 to 5000 nM; in the assay on HCC70 cells, 1000 to 5000 nM; against CDK9/Cyclin T1 complex, 200 to 5000 nM; against CDK2/Cyclin E1 complex, 200 to 5000 nM.

As for `Cc1noc([C@H]2CC[C@H](Nc3ncc(C(F)(F)F)c(-c4c[nH]c5cc(C#N)ccc45)n3)CN2)n1` [Compound 358], the IC50 is 20 to 200 nM in assay [1]; greater than 5000 nM in assay [2]; 100 to 1000 nM in the assay with HCC70 cells; greater than 5000 nM against CDK9/Cyclin T1 complex; greater than 5000 nM at CDK2/Cyclin E1 complex.

Take `CC(=O)c1ccc2c(-c3nc(N[C@H]4CCCNC4)ncc3C(F)(F)F)c[nH]c2c1` [Compound 359, 1-[3-[2-[[(3S)-3-piperidyl]amino]-5-(trifluoromethyl)pyrimidin-4-yl]-1H-indol-6-yl]ethanone]: the IC50 was less than 20 nM in assay [1]; 200 to 5000 nM in assay [2]; less than 100 nM in the assay on HCC70 cells; 200 to 5000 nM against CDK9/Cyclin T1 complex; 200 to 5000 nM on CDK2/Cyclin E1 complex.

For the compound `CCc1cnc(N[C@H]2CCCNC2)nc1-c1c[nH]c2c(F)c(C#N)ccc12` [Compound 360, 3-[5-ethyl-2-[[(3S)-3-piperidyl]amino]pyrimidin-4-yl]-7-fluoro-1H-indole-6-carbonitrile], the IC50 in assay [1] is 20 to 200 nM; in assay [2] it was greater than 5000 nM; in the assay on HCC70 cells, 1000 to 5000 nM; against CDK9/Cyclin T1 complex, greater than 5000 nM; at CDK2/Cyclin E1 complex it was greater than 5000 nM.

On to `N#Cc1ccc2c(-c3nc(N[C@H]4CCCNC4)ncc3SC(F)F)c[nH]c2c1` [Compound 361, 3-[5-(difluoromethylsulfanyl)-2-[[(3S)-3-piperidyl]amino]pyrimidin-4-yl]-1H-indole-6-carbonitrile], for which the IC50 in assay [1] was 20 to 200 nM; in assay [2], 200 to 5000 nM; in the assay on HCC70 cells, 100 to 1000 nM; against CDK9/Cyclin T1 complex it was 200 to 5000 nM; on CDK2/Cyclin E1 complex, greater than 5000 nM.

Consider `CN1CCC[C@H](Nc2ncc(C(F)(F)F)c(-c3c[nH]c4cc(S(C)(=O)=O)ccc34)n2)C1` [Compound 364, N-[(3S)-1-methyl-3-piperidyl]-4-(6-methylsulfonyl-1H-indol-3-yl)-5-(trifluoromethyl)pyrimidin-2-amine], for which the IC50 in assay [1] is 20 to 200 nM; in assay [2], greater than 5000 nM; in the assay with HCC70 cells it was 1000 to 5000 nM; against CDK9/Cyclin T1 complex, greater than 5000 nM; on CDK2/Cyclin E1 complex, greater than 5000 nM.

For the compound `O=S(=O)(CF)c1ccc2c(-c3nc(N[C@H]4CCCNC4)ncc3C(F)(F)F)c[nH]c2c1` [Compound 365, 4-[6-(fluoromethylsulfonyl)-1H-indol-3-yl]-N-[(3S)-3-piperidyl]-5-(trifluoromethyl)pyrimidin-2-amine], the IC50 in assay [1] is less than 20 nM; in assay [2] it was 200 to 5000 nM; in the assay on HCC70 cells it was 100 to 1000 nM; against CDK9/Cyclin T1 complex, 200 to 5000 nM; against CDK2/Cyclin E1 complex, 200 to 5000 nM.

In the case of `CCCc1cnc(N[C@H]2CCCNC2)nc1-c1c[nH]c2c(S(C)(=O)=O)c(C#N)ccc12` [Compound 367, 7-methylsulfonyl-3-[2-[[(3S)-3-piperidyl]amino]-5-propyl-pyrimidin-4-yl]-1H-indole-6-carbonitrile], the IC50 was 20 to 200 nM in assay [1]; greater than 5000 nM in assay [2]; 1000 to 5000 nM in the assay on HCC70 cells; greater than 5000 nM against CDK9/Cyclin T1 complex; greater than 5000 nM against CDK2/Cyclin E1 complex.

As for `N#Cc1ccc2c(-c3nc(N[C@@H]4CNC[C@@H](F)C4)ncc3C(F)(F)F)c[nH]c2c1` [Compound 368, 3-[2-[[(3S,5S)-5-fluoro-3-piperidyl]amino]-5-(trifluoromethyl)pyrimidin-4-yl]-1H-Indole-6-carbonitrile], the IC50 in assay [1] was 20 to 200 nM; in assay [1] (listed as 128), greater than 5000 nM; in assay [2] it was 200 to 5000 nM; in assay [2] (listed as 128), greater than 5000 nM; in the assay on HCC70 cells, 1000 to 5000 nM; at CDK9/Cyclin T1 complex, greater than 5000 nM. The IC50 on CDK9/Cyclin T1 complex (listed as 128), against CDK2/Cyclin E1 complex and on CDK2/Cyclin E1 complex (listed as 128) was greater than 5000 nM each time.

Take `CN(C)S(=O)(=O)c1cccc2c(-c3nc(NC4CCCNC4)ncc3C(F)(F)F)c[nH]c12` (stereo not drawn) [Compound 371]: the IC50 in assay [1] is less than 20 nM; in assay [2], 200 to 5000 nM; with HCC70 cells it was less than 100 nM; against CDK9/Cyclin T1 complex, 200 to 5000 nM; against CDK2/Cyclin E1 complex, 200 to 5000 nM.

As to `FC(F)Sc1ccc2c(-c3nc(N[C@H]4CCCNC4)ncc3C(F)(F)F)c[nH]c2c1` [Compound 374, 4-[6-(difluoromethylsulfanyl)-1H-indol-3-yl]-N-[(3S)-3-piperidyl]-5-(trifluoromethyl) pyrimidin-2-amine], the IC50 in assay [1] was less than 20 nM; in assay [2], 20 to 200 nM; in the assay on HCC70 cells, less than 100 nM; at CDK9/Cyclin T1 complex, 200 to 5000 nM; at CDK2/Cyclin E1 complex, 200 to 5000 nM.

Take `O=S(=O)(c1ccc2c(-c3nc(N[C@H]4CCCNC4)ncc3C(F)(F)F)c[nH]c2c1)C(F)F` [Compound 375, 4-[6-(difluoromethylsulfonyl)-1H-indol-3-yl]-N-[(3S)-3-piperidyl]-5-(trifluoromethyl)pyrimidin-2-amine]: the IC50 was less than 20 nM in assay [1]; 200 to 5000 nM in assay [2]; 100 to 1000 nM with HCC70 cells; 200 to 5000 nM against CDK9/Cyclin T1 complex; 200 to 5000 nM at CDK2/Cyclin E1 complex.

Regarding `CC1(C)CNC[C@@H](Nc2ncc(C(F)(F)F)c(-c3c[nH]c4cc(S(C)(=O)=O)ccc34)n2)C1` [Compound 376, N-[(3S)-5,5-dimethyl-3-piperidyl]-4-(6-methylsulfonyl-1H-indol-3-yl)-5-(trifluoromethyl) pyrimidin-2-amine], the IC50 in assay [1] is 20 to 200 nM; in assay [2], 200 to 5000 nM; in the assay on HCC70 cells, 100 to 1000 nM; against CDK9/Cyclin T1 complex, greater than 5000 nM; on CDK2/Cyclin E1 complex, 200 to 5000 nM.

Take `CCP(=O)(CC)c1ccc2c(-c3nc(N[C@H]4CCCNC4)ncc3C(F)(F)F)c[nH]c2c1` [Compound 379]: the IC50 in assay [1] is 20 to 200 nM; in assay [2] it was greater than 5000 nM; with HCC70 cells it was 1000 to 5000 nM; at CDK9/Cyclin T1 complex, greater than 5000 nM; on CDK2/Cyclin E1 complex, greater than 5000 nM.

On to `[O-][S+](c1ccc2c(-c3nc(N[C@H]4CCCNC4)ncc3C(F)(F)F)c[nH]c2c1)C(F)F` (stereo partly drawn) [Compound 380, 4-[6-(difluoromethylsulfinyl)-1H-indol-3-yl]-N-[(3S)-3-piperidyl]-5-(trifluoromethyl) pyrimidin-2-amine], for which the IC50 in assay [1] is less than 20 nM; in assay [2], 200 to 5000 nM; in the assay with HCC70 cells, less than 100 nM; against CDK9/Cyclin T1 complex, 200 to 5000 nM; at CDK2/Cyclin E1 complex, 200 to 5000 nM.

Consider `CS(=O)(=O)c1ccc2c(-c3nc(N[C@H]4CCCN(C5CC5)C4)ncc3C(F)(F)F)c[nH]c2c1` [Compound 381, N-[(3S)-1-cyclopropyl-3-piperidyl]-4-(6-methylsulfonyl-1H-indol-3-yl)-5-(trifluoromethyl) pyrimidin-2-amine], for which the IC50 in assay [1] is 20 to 200 nM; in assay [2], 200 to 5000 nM; in the assay on HCC70 cells, 1000 to 5000 nM; against CDK9/Cyclin T1 complex, greater than 5000 nM; against CDK2/Cyclin E1 complex, greater than 5000 nM.

These data come from patent US20240360165A1, “INHIBITORS OF CYCLIN DEPENDENT KINASE 7 (CDK7)” (Syros Pharmaceuticals, Inc., priority 2016, published 2024).
